Source: patent US20240132484A1, “BROAD SPECTRUM ANTIVIRAL COMPOUNDS TARGETING THE SKI COMPLEX” (priority 2020, published 2024)
Several values for one entry are separate records, joined by “and”; a condition that tells them apart may be missing. Equal values may be shown once. Read-outs that look alike come from different tables or passages of the source.

Columns and labels:
[1] = test system: cells (nuclei count); settings: for Toxicity Data: Average, Mean: n 9; for Relative cell count to DMSO controls, Average 1 μM / Relative cell count to DMSO controls, Average 5 μM / Relative cell count to DMSO controls, Average 10 μM / Relative cell count to DMSO controls, Average 25 μM / Relative cell count to DMSO controls, Average 50 μM: toxicity data, 100=DMSO control; for Relative cell count to DMSO controls, Average (for correlation analysis): average value over the 5 tested concentrations (1 to 50 uM)
[2] = test system: SARS2; format: cell-based, SARS-CoV-2; settings: for Percentage Inhibition Average 1 μM / Screening data (Relative infection to DMSO controls) Average 1 μM: SARS2, 1 μM; for Screening data (Relative infection to DMSO controls) Average 1 μM / Screening data (Relative infection to DMSO controls) Average 5 μM / Screening data (Relative infection to DMSO controls) Average 10 μM / Screening data (Relative infection to DMSO controls) Average 25 μM / Screening data (Relative infection to DMSO controls) Average 50 μM / Average (relative infection to DMSO over the 5 tested concentrations): 100=DMSO control; for Percentage Inhibition Average 5 μM / Screening data (Relative infection to DMSO controls) Average 5 μM: SARS2, 5 μM; for Percentage Inhibition Average 10 μM / Screening data (Relative infection to DMSO controls) Average 10 μM: SARS2, 10 μM; for Percentage Inhibition Average 25 μM / Screening data (Relative infection to DMSO controls) Average 25 μM: SARS2, 25 μM; for Percentage Inhibition Average 50 μM / Screening data (Relative infection to DMSO controls) Average 50 μM: SARS2, 50 μM; for Average (relative infection to DMSO over the 5 tested concentrations): SARS2, average over 1 to 50 uM; for Infection Data: Percentage Infection Relative to Appropriate DMSO Control: avg background subtraction, replicate wells; for Infection Data: Average, Mean: average of Exp 1-3 (SMW475, SMW477, SMW478), n 9
[3] = 1 uM, average of Exp 1-3 (SMW454, SMW466, SMW480)
[4] = 5 uM, average of Exp 1-3 (SMW454, SMW466, SMW480)
[5] = 10 uM, average of Exp 1-3 (SMW454, SMW466, SMW480)
[6] = 25 uM, average of Exp 1-3 (SMW454, SMW466, SMW480)
[7] = 50 uM, average of Exp 1-3 (SMW454, SMW466, SMW480)

CN(C)CCN(Cc1ccsc1)Cc1ccco1 [SILCS12]
Toxicity Data: Average, Mean [1, 3]: 103.58%
Relative cell count to DMSO controls, Average 1 μM [1]: 103.58
Toxicity Data: Average, Mean [1, 4]: 102.70%
Relative cell count to DMSO controls, Average 5 μM [1]: 102.7
Toxicity Data: Average, Mean [1, 5]: 96.10%
Relative cell count to DMSO controls, Average 10 μM [1]: 96.1
Toxicity Data: Average, Mean [1, 6]: 95.34%
Relative cell count to DMSO controls, Average 25 μM [1]: 95.34
Toxicity Data: Average, Mean [1, 7]: 66.97%
Relative cell count to DMSO controls, Average 50 μM [1]: 66.97
Relative cell count to DMSO controls, Average (for correlation analysis) [1]: 92.94
Percentage Infection Relative to DMSO Control, Average, Mean [2]: 76.66% and 135.12% and 110.30% and 109.01% and 120.43%
Percentage Inhibition Average 1 μM [2]: −20.43%
Screening data (Relative infection to DMSO controls) Average 1 μM [2]: 120.43
Percentage Inhibition Average 5 μM [2]: −9.01%
Screening data (Relative infection to DMSO controls) Average 5 μM [2]: 109.01
Percentage Inhibition Average 10 μM [2]: −10.30%
Screening data (Relative infection to DMSO controls) Average 10 μM [2]: 110.30
Percentage Inhibition Average 25 μM [2]: −35.12%
Screening data (Relative infection to DMSO controls) Average 25 μM [2]: 135.12
Percentage Inhibition Average 50 μM [2]: 23.34%
Screening data (Relative infection to DMSO controls) Average 50 μM [2]: 76.66
Average (relative infection to DMSO over the 5 tested concentrations) [2]: 110.30

Cc1ccc(CN(CCN(C)C)Cc2ccc(CO)o2)s1 [SILCS13]
Toxicity Data: Average, Mean [1, 3]: 105.73%
Relative cell count to DMSO controls, Average 1 μM [1]: 105.73
Toxicity Data: Average, Mean [1, 4]: 107.19%
Relative cell count to DMSO controls, Average 5 μM [1]: 107.19
Toxicity Data: Average, Mean [1, 5]: 105.25%
Relative cell count to DMSO controls, Average 10 μM [1]: 105.25
Toxicity Data: Average, Mean [1, 6]: 104.32%
Relative cell count to DMSO controls, Average 25 μM [1]: 104.32
Toxicity Data: Average, Mean [1, 7]: 78.61%
Relative cell count to DMSO controls, Average 50 μM [1]: 78.61
Relative cell count to DMSO controls, Average (for correlation analysis) [1]: 100.22
Percentage Infection Relative to DMSO Control, Average, Mean [2]: 85.64% and 142.17% and 120.89% and 97.87% and 94.70%
Percentage Inhibition Average 1 μM [2]: 5.30%
Screening data (Relative infection to DMSO controls) Average 1 μM [2]: 94.70
Percentage Inhibition Average 5 μM [2]: 2.13%
Screening data (Relative infection to DMSO controls) Average 5 μM [2]: 97.87
Percentage Inhibition Average 10 μM [2]: −20.89%
Screening data (Relative infection to DMSO controls) Average 10 μM [2]: 120.89
Percentage Inhibition Average 25 μM [2]: −42.17%
Screening data (Relative infection to DMSO controls) Average 25 μM [2]: 142.17
Percentage Inhibition Average 50 μM [2]: 14.36%
Screening data (Relative infection to DMSO controls) Average 50 μM [2]: 85.64
Average (relative infection to DMSO over the 5 tested concentrations) [2]: 108.25

Cc1cc(CN(CCN(C)C)Cc2ccncc2)sc1Br [SILCS14]
Toxicity Data: Average, Mean ([1]; 1 uM, average of Exp 1-3 (SMW475, SMW477, SMW478)): 105.49%
Relative cell count to DMSO controls, Average 1 μM [1]: 105.49
Toxicity Data: Average, Mean ([1]; 5 uM, average of Exp 1-3 (SMW475, SMW477, SMW478)): 103.93%
Relative cell count to DMSO controls, Average 5 μM [1]: 103.93
Toxicity Data: Average, Mean ([1]; 10 uM, average of Exp 1-3 (SMW475, SMW477, SMW478)): 108.29%
Relative cell count to DMSO controls, Average 10 μM [1]: 108.29
Toxicity Data: Average, Mean ([1]; 25 uM, average of Exp 1-3 (SMW475, SMW477, SMW478)): 139.75%
Relative cell count to DMSO controls, Average 25 μM [1]: 139.75
Toxicity Data: Average, Mean ([1]; 50 uM, average of Exp 1-3 (SMW475, SMW477, SMW478)): 16.80%
Relative cell count to DMSO controls, Average 50 μM [1]: 16.8
Relative cell count to DMSO controls, Average (for correlation analysis) [1]: 94.85
Infection Data: Percentage Infection Relative to Appropriate DMSO Control ([2]; 1 uM, Exp 1 (SMW475)): 112.00% and 92.09% and 122.87%
Infection Data: Percentage Infection Relative to Appropriate DMSO Control ([2]; 1 uM, Exp 2 (SMW477)): 91.97% and 93.96% and 99.35%
Infection Data: Percentage Infection Relative to Appropriate DMSO Control ([2]; 1 uM, Exp 3 (SMW478)): 112.26% and 106.71% and 118.52%
Infection Data: Average, Mean ([2]; 1 uM): 105.53%
Infection Data: Percentage Infection Relative to Appropriate DMSO Control ([2]; 5 uM, Exp 1 (SMW475)): 112.88% and 98.55% and 115.50%
Infection Data: Percentage Infection Relative to Appropriate DMSO Control ([2]; 5 uM, Exp 2 (SMW477)): 105.78% and 98.21% and 86.55%
Infection Data: Percentage Infection Relative to Appropriate DMSO Control ([2]; 5 uM, Exp 3 (SMW478)): 109.15% and 113.38% and 106.22%
Infection Data: Average, Mean ([2]; 5 uM): 105.13%
Infection Data: Percentage Infection Relative to Appropriate DMSO Control ([2]; 10 uM, Exp 1 (SMW475)): 92.53% and 120.55% and 101.62%
Infection Data: Percentage Infection Relative to Appropriate DMSO Control ([2]; 10 uM, Exp 2 (SMW477)): 84.89% and 81.65% and 69.99%
Infection Data: Percentage Infection Relative to Appropriate DMSO Control ([2]; 10 uM, Exp 3 (SMW478)): 92.27% and 101.81% and 99.27%
Infection Data: Average, Mean ([2]; 10 uM): 93.84%
Infection Data: Percentage Infection Relative to Appropriate DMSO Control ([2]; 25 uM, Exp 1 (SMW475)): 11.84% and 13.81% and 11.60%
Infection Data: Percentage Infection Relative to Appropriate DMSO Control ([2]; 25 uM, Exp 2 (SMW477)): 19.70% and 19.93% and 22.53%
Infection Data: Percentage Infection Relative to Appropriate DMSO Control ([2]; 25 uM, Exp 3 (SMW478)): 9.11% and 11.10% and 12.21%
Infection Data: Average, Mean ([2]; 25 uM): 14.65%
Infection Data: Percentage Infection Relative to Appropriate DMSO Control ([2]; 50 uM, Exp 1 (SMW475)): 2.09% and 3.52% and 1.22%
Infection Data: Percentage Infection Relative to Appropriate DMSO Control ([2]; 50 uM, Exp 2 (SMW477)): 1.91% and −0.25% and −0.24%
Infection Data: Percentage Infection Relative to Appropriate DMSO Control ([2]; 50 uM, Exp 3 (SMW478)): 3.06% and 0.62% and 3.25%
Infection Data: Average, Mean ([2]; 50 uM): 1.69%
Percentage Inhibition Average 1 μM [2]: −5.53%
Screening data (Relative infection to DMSO controls) Average 1 μM [2]: 105.53
Percentage Inhibition Average 5 μM [2]: −5.13%
Screening data (Relative infection to DMSO controls) Average 5 μM [2]: 105.13
Percentage Inhibition Average 10 μM [2]: 6.16%
Screening data (Relative infection to DMSO controls) Average 10 μM [2]: 93.84
Percentage Inhibition Average 25 μM [2]: 85.35%
Screening data (Relative infection to DMSO controls) Average 25 μM [2]: 14.65
Percentage Inhibition Average 50 μM [2]: 98.31%
Screening data (Relative infection to DMSO controls) Average 50 μM [2]: 1.69
Average (relative infection to DMSO over the 5 tested concentrations) [2]: 64.17
